Measurements: US20250320213A1, “Nitrogen-Containing Heterocyclic Compounds” (Pfizer Inc., priority 2024, published 2025)

Biological target: T1, STAT6 (Homo sapiens, UniProt P42226)
T1 construct: stably transfected HaCaT keratinocyte cell line, which expresses NanoLuc luciferase reporter gene under the transcriptional control of the STAT6 responsive promoter; endogenous in cells; host or cells: HaCaT keratinocyte reporter cell line (stably transfected with a NanoLuc reporter)
T1 sequence (P42226 1-847): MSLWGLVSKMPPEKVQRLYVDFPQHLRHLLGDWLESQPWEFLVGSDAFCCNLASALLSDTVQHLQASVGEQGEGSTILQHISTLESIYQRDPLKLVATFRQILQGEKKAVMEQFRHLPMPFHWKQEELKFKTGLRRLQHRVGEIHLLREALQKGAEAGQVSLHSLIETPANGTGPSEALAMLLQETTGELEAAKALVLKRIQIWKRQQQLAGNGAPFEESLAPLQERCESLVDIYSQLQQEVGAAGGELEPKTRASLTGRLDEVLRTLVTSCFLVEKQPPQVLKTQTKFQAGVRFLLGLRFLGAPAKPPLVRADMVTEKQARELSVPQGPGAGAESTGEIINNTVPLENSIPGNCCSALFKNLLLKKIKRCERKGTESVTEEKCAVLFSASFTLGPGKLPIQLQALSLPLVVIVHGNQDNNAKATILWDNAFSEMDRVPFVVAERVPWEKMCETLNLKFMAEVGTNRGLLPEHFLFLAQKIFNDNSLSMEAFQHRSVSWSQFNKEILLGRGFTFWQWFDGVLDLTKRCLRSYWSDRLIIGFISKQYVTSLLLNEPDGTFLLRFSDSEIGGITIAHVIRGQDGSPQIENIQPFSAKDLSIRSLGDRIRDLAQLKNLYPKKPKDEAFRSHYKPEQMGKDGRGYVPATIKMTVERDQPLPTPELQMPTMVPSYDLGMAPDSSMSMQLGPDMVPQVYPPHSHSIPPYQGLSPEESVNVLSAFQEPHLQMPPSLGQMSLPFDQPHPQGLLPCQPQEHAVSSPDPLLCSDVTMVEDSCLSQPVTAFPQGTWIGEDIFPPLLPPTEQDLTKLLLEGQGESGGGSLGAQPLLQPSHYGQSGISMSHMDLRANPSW
Test: STAT6 Reporter Luciferase Assay (IL-13 stimulated HaCaT keratinocyte NanoLuc reporter cells)
Type: cell-based
Conditions: IL-13 stimulated HaCaT STAT6 NanoLuc reporter cells; read-out: Reporter EC50
Summary of the method: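 Stably transfected HaCaT cells carrying NanoLuc under the STAT6-responsive IL-13Ra2 promoter were pre-treated with compound (11-point, 4-fold series, duplicate) for 2 h at 37 °C, then stimulated with 0.12 nM IL-13 for 4 h. Nano-Glo luminescence was read after 15 min.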

EC50 [nM] | SMILES
5 | CC(C)n1nc(C(=O)NCc2ccc(NC(=O)N3CC4(CN(C)C4)C3)c(F)c2)c2c1[C@@H](C)CN(c1ccc(C(=O)N(C)C)cc1)C2 [Example 641, (S)-5-(4-(dimethylcarbamoyl)phenyl)-N-(3-fluoro-4-(6-methyl-2,6-diazaspiro[3.3]heptane-2-carboxamido)benzyl)-1-isopropyl-7-methyl-4,5,6,7-tetrahydro-1H-pyrazolo[4,3-c]pyridine-3-carboxamide]
1 | CC(C)n1nc(C(=O)NCc2ccc(NC(=O)N3CCC4(CCN(C)C4)CC3)c(F)c2)c2c1[C@@H](C)CN(c1ccc(C(=O)N(C)C)cc1)C2 [Example 642, (S)-N-(4-((5-(4-(dimethylcarbamoyl)phenyl)-1-isopropyl-7-methyl-4,5,6,7-tetrahydro-1H-pyrazolo[4,3-c]pyridine-3-carboxamido)methyl)-2-fluorophenyl)-2-methyl-2,8-diazaspiro[4.5]decane-8-carboxamide]
1 | CC(C)n1nc(C(=O)NCc2ccc(NC(=O)N3CCC4(CC3)CN(C)CCO4)c(F)c2)c2c1[C@@H](C)CN(c1ccc(C(=O)N(C)C)cc1)C2 [Example 643, (S)-N-(4-((5-(4-(dimethylcarbamoyl)phenyl)-1-isopropyl-7-methyl-4,5,6,7-tetrahydro-1H-pyrazolo[4,3-c]pyridine-3-carboxamido)methyl)-2-fluorophenyl)-4-methyl-1-oxa-4,9-diazaspiro[5.5]undecane-9-carboxamide]
1 | CC(C)n1nc(C(=O)NCc2ccc(NC(=O)N3CCC4(CCCN(C)C4)CC3)c(F)c2)c2c1[C@@H](C)CN(c1ccc(C(=O)N(C)C)cc1)C2 [Example 644, (S)-N-(4-((5-(4-(dimethylcarbamoyl)phenyl)-1-isopropyl-7-methyl-4,5,6,7-tetrahydro-1H-pyrazolo[4,3-c]pyridine-3-carboxamido)methyl)-2-fluorophenyl)-2-methyl-2,9-diazaspiro[5.5]undecane-9-carboxamide]
1 | CC(C)n1nc(C(=O)NCc2ccc(NC(=O)N3CCC4(CC3)CCN4C)c(F)c2)c2c1[C@@H](C)CN(c1ccc(C(=O)N(C)C)cc1)C2 [Example 645, (S)-5-(4-(dimethylcarbamoyl)phenyl)-N-(3-fluoro-4-(1-methyl-1,7-diazaspiro[3.5]nonane-7-carboxamido)benzyl)-1-isopropyl-7-methyl-4,5,6,7-tetrahydro-1H-pyrazolo[4,3-c]pyridine-3-carboxamide]
1 | CC(C)n1nc(C(=O)NCc2ccc(NC(=O)N3CC4(CCCN(C)C4)C3)c(F)c2)c2c1[C@@H](C)CN(c1ccc(C(=O)N(C)C)cc1)C2 [Example 646, (S)-5-(4-(dimethylcarbamoyl)phenyl)-N-(3-fluoro-4-(6-methyl-2,6-diazaspiro[3.5]nonane-2-carboxamido)benzyl)-1-isopropyl-7-methyl-4,5,6,7-tetrahydro-1H-pyrazolo[4,3-c]pyridine-3-carboxamide]
1 | CC(C)n1nc(C(=O)NCc2ccc(NC(=O)N3CCC4(CC3)CN(C)C4)c(F)c2)c2c1[C@@H](C)CN(c1ccc(C(=O)N(C)C)cc1)C2 [Example 647, (S)-5-(4-(dimethylcarbamoyl)phenyl)-N-(3-fluoro-4-(2-methyl-2,7-diazaspiro[3.5]nonane-7-carboxamido)benzyl)-1-isopropyl-7-methyl-4,5,6,7-tetrahydro-1H-pyrazolo[4,3-c]pyridine-3-carboxamide]
1 | CC(C)n1nc(C(=O)NCc2ccc(NC(=O)N3CCN(C)C4(CC4)C3)c(F)c2)c2c1[C@@H](C)CN(c1ccc(C(=O)N(C)C)cc1)C2 [Example 648, (S)-5-(4-(dimethylcarbamoyl)phenyl)-N-(3-fluoro-4-(4-methyl-4,7-diazaspiro[2.5]octane-7-carboxamido)benzyl)-1-isopropyl-7-methyl-4,5,6,7-tetrahydro-1H-pyrazolo[4,3-c]pyridine-3-carboxamide]

Further lines, the compound ahead of its results:

SMILES | EC50 [nM]
CC(C)n1nc(C(=O)NCc2ccc(NC(=O)N(C)C)cc2)c2c1CCN(c1ccc(C(=O)N3CCn4c(cccc4=O)C3)cn1)C2 [Example 439, N-(4-(3,3-dimethylureido)benzyl)-1-isopropyl-5-(5-(6-oxo-1,3,4,6-tetrahydro-2H-pyrido[1,2-a]pyrazine-2-carbonyl)pyridin-2-yl)-4,5,6,7-tetrahydro-1H-pyrazolo[4,3-c]pyridine-3-carboxamide] | 88
Cc1cc2c(cn1)CN(C(=O)c1ccc(N3CCc4c(c(C(=O)NCc5ccc(NC(=O)N(C)C)cc5)nn4C(C)C)C3)nc1)C2 [Example 440, N-(4-(3,3-dimethylureido)benzyl)-1-isopropyl-5-(5-(6-methyl-2,3-dihydro-1H-pyrrolo[3,4-c]pyridine-2-carbonyl)pyridin-2-yl)-4,5,6,7-tetrahydro-1H-pyrazolo[4,3-c]pyridine-3-carboxamide] | 16
Cc1cccc2c1CN(C(=O)c1ccc(N3CCc4c(c(C(=O)NCc5ccc(NC(=O)N(C)C)cc5)nn4C(C)C)C3)nc1)C2 [Example 441, N-(4-(3,3-dimethylureido)benzyl)-1-isopropyl-5-(5-(4-methylisoindoline-2-carbonyl)pyridin-2-yl)-4,5,6,7-tetrahydro-1H-pyrazolo[4,3-c]pyridine-3-carboxamide] | 2
CC(C)n1nc(C(=O)NCc2ccc(NC(=O)N(C)C)cc2)c2c1CCN(c1ccc(C(=O)N3Cc4ccccc4C3)cn1)C2 [Example 442, N-(4-(3,3-dimethylureido)benzyl)-5-(5-(isoindoline-2-carbonyl)pyridin-2-yl)-1-isopropyl-4,5,6,7-tetrahydro-1H-pyrazolo[4,3-c]pyridine-3-carboxamide] | 2
Cc1nnn2c1CN(C(=O)c1ccc(N3CCc4c(c(C(=O)NCc5ccc(NC(=O)N(C)C)cc5)nn4C(C)C)C3)nc1)CC2 [Example 455, N-(4-(3,3-dimethylureido)benzyl)-1-isopropyl-5-(5-(3-methyl-4,5,6,7-tetrahydro-[1,2,3]triazolo[1,5-a]pyrazine-5-carbonyl)pyridin-2-yl)-4,5,6,7-tetrahydro-1H-pyrazolo[4,3-c]pyridine-3-carboxamide] | 311
CCS(=O)(=O)N1CCN(C(=O)c2ccc(N3CCc4c(c(C(=O)NCc5ccc(NC(=O)N(C)C)cc5)nn4C(C)C)C3)nc2)CC1 [Example 563, N-(4-(3,3-dimethylureido)benzyl)-5-(5-(4-(ethylsulfonyl)piperazine-1-carbonyl)pyridin-2-yl)-1-isopropyl-4,5,6,7-tetrahydro-1H-pyrazolo[4,3-c]pyridine-3-carboxamide] | 202
CC(C)n1nc(C(=O)NCc2ccc(NC(=O)N(C)C)cc2)c2c1CCN(c1ccc(C(=O)N3CCC4(CCC(=O)N4C)CC3)cn1)C2 [Example 564, N-(4-(3,3-dimethylureido)benzyl)-1-isopropyl-5-(5-(1-methyl-2-oxo-1,8-diazaspiro[4.5]decane-8-carbonyl)pyridin-2-yl)-4,5,6,7-tetrahydro-1H-pyrazolo[4,3-c]pyridine-3-carboxamide] | 223
COCCN1CCC(CN(C)C(=O)c2ccc(N3Cc4c(C(=O)NCc5ccc(NC(=O)N(C)C)cc5)nn(C(C)C)c4[C@@H](C)C3)cc2)CC1 [Example 565, (S)-N-(4-(3,3-dimethylureido)benzyl)-1-isopropyl-5-(4-(((1-(2-methoxyethyl)piperidin-4-yl)methyl)(methyl)carbamoyl)phenyl)-7-methyl-4,5,6,7-tetrahydro-1H-pyrazolo[4,3-c]pyridine-3-carboxamide] | 5
Cc1nn(C)c(=O)n1-c1ccc(N2Cc3c(C(=O)NCc4ccc(NC(=O)N5CCN(C)CC5)cc4)nn(C(C)C)c3[C@@H](C)C2)nc1 [Example 613, (S)-5-(5-(1,3-dimethyl-5-oxo-1,5-dihydro-4H-1,2,4-triazol-4-yl)pyridin-2-yl)-1-isopropyl-7-methyl-N-(4-(4-methylpiperazine-1-carboxamido)benzyl)-4,5,6,7-tetrahydro-1H-pyrazolo[4,3-c]pyridine-3-carboxamide] | 3
CC(C)n1nc(C(=O)NCc2ccc(NC(=O)N3CCN4CCCC[C@H]4C3)c(F)c2)c2c1[C@@H](C)CN(c1ccc(C(=O)N(C)C)cc1)C2 [Example 640, (S)-N-(4-(((S)-5-(4-(dimethylcarbamoyl)phenyl)-1-isopropyl-7-methyl-4,5,6,7-tetrahydro-1H-pyrazolo[4,3-c]pyridine-3-carboxamido)methyl)-2-fluorophenyl)octahydro-2H-pyrido[1,2-a]lpyrazine-2-carboxamide] | 1
